According to patent US11466023B2, “Combination of a Mcl-1 inhibitor and a standard of care treatment for hematologic cancers, uses and pharmaceutical compositions thereof” (LES LABORATOIRES SERVIER, priority 2017, dated 2022):
Read-outs that look alike come from different tables or passages of the source.

How the values were obtained:
EOL-1 AML cell line = assay: Single agent cell viability (CellTiterGlo); format: cell-based
Description: (§1) Cell lines were cultured at 37° C. in a humidified atmosphere containing 5% CO2 and expanded in T-150 flasks. […] In order to analyse the activity of the compounds as single agents, cells were seeded and treated with nine 2-fold serial dilutions of each compound dispensed individually directly into the cell assay plates. […] All the experiments were performed in triplicates. Luminescence was quantified on a multipurpose plate reader. Single agent IC50s were calculated using standard four-parametric curve fitting.

GDM-1 AML cell line = assay: Single agent cell viability (CellTiterGlo); format: cell-based
Description: as §1

HL-60 AML cell line = assay: Single agent cell viability (CellTiterGlo); format: cell-based
Description: as §1

KG1 AML cell line = assay: Single agent cell viability (CellTiterGlo); format: cell-based
Description: as §1

KG1a AML cell line = assay: Single agent cell viability (CellTiterGlo); format: cell-based
Description: as §1

Kasumi-1 AML cell line = assay: Single agent cell viability (CellTiterGlo); format: cell-based
Description: as §1

ML-2 AML cell line = assay: Single agent cell viability (CellTiterGlo); format: cell-based
Description: as §1

MOLM-13 AML cell line = assay: Single agent cell viability (CellTiterGlo); format: cell-based
Description: as §1

MV4; 11 AML cell line = assay: Single agent cell viability (CellTiterGlo); format: cell-based
Description: as §1

Nomo-1 AML cell line = assay: Single agent cell viability (CellTiterGlo); format: cell-based
Description: as §1

OCI-AML3 AML cell line = assay: Single agent cell viability (CellTiterGlo); format: cell-based
Description: as §1

PL-21 AML cell line = assay: Single agent cell viability (CellTiterGlo); format: cell-based
Description: as §1

THP-1 AML cell line = assay: Single agent cell viability (CellTiterGlo); format: cell-based
Description: as §1

[1] = test system: mononuclear cells from AML patient samples; assay: Cell viability assay (Sytox blue flow cytometry) in primary AML samples; format: cell-based, human; conditions: combination at 1:1 ratio, read-out: 50% lethal concentration (LC50)
Description: Bone marrow samples from patients with AML were collected after informed consent in accordance with guidelines approved by The Alfred Hospital Human research ethics committee.
Mononuclear cells were isolated by density-gradient centrifugation Ficoll-Hypaque (GE Healthcare, Australia) density-gradient centrifugation and red cell lysis was performed using 0.156 M NH4Cl, 0.017 M Tris-HCl pH 7.2 as previously described (Rijal et al., Blood 2015, 125, 2815-2824). Cells were then re-suspended in phosphate-buffered saline containing 2% Fetal Bovine serum (FBS; Sigma, Australia). Mononuclear cells were then suspended in RPMI-1640 (GIBCO, Australia) medium containing penicillin and streptomycin (GIBCO) and heat inactivated fetal bovine serum 15% (Sigma). Cells were washed in phosphate-buffered saline (PBS) containing 2% FBS prior to use.
Freshly purified mononuclear cells from AML patient samples were adjusted to a concentration of 2.5×10^5/mL and 100 μL of cells aliquoted per well into 96 well plates (Sigma). Cells were then treated with idarubicin and Compound 2 over a […] concentration range from 1 nM to 10 μM for 48 hours. For combinations assays, drugs were added at a 1:1 ratio from 1 nM to 10 μM and cells were incubated at 37° C. 5% CO2. Cells were then stained with Sytox blue nucleic acid stain (Invitrogen, Australia) and fluorescence measured by flow cytometric analysis using the LSR-II Fortessa (Becton Dickinson, Australia). FACSDiva software was used for data collection, and FlowJo software for analysis. Blast cells were gated using forward and side scatter properties. Viable cells excluding Sytox blue were determined at 6 concentrations for each drug and the 50% lethal concentration (LC50, in μM) determined.

primary AML samples = conditions: a subset of primary AML samples, 100 nM
[2] = test system: normal human CD34+ progenitor cells; conditions: 100 nM
[3] = EOL-1, single agent, 3 days incubation, CellTiterGlo, read-out: IC50
[4] = GDM-1, single agent, 3 days incubation, CellTiterGlo, read-out: IC50
[5] = HL-60, single agent, 3 days incubation, CellTiterGlo, read-out: IC50
[6] = KG1, single agent, 3 days incubation, CellTiterGlo, read-out: IC50
[7] = KG1a, single agent, 3 days incubation, CellTiterGlo, read-out: IC50
[8] = Kasumi-1, single agent, 3 days incubation, CellTiterGlo, read-out: IC50
[9] = ML-2, single agent, 3 days incubation, CellTiterGlo, read-out: IC50
[10] = MOLM-13, single agent, 3 days incubation, CellTiterGlo, read-out: IC50
[11] = MV4, 11, single agent, 3 days incubation, CellTiterGlo, read-out: IC50
[12] = Nomo-1, single agent, 3 days incubation, CellTiterGlo, read-out: IC50
[13] = OCI-AML3, single agent, 3 days incubation, CellTiterGlo, read-out: IC50
[14] = PL-21, single agent, 3 days incubation, CellTiterGlo, read-out: IC50
[15] = THP-1, single agent, 3 days incubation, CellTiterGlo, read-out: IC50

**Q.** With COc1ccccc1-c1nccc(COc2ccccc2C[C@@H](Oc2ncnc3sc(-c4ccc(F)cc4)c(-c4ccc(OCCN5CCN(C)CC5)c(Cl)c4C)c23)C(=O)O)n1 [Compound 1, (2R)-2-{[(5Sa)-5-{3-chloro-2-methyl-4-[2-(4-methylpiperazin-1-yl)ethoxy]phenyl}-6-(4-fluorophenyl)thieno[2,3-d]pyrimidin-4-yl]oxy}-3-(2-{[2-(2-methoxyphenyl)pyrimidin-4-yl]methoxy}phenyl)propanoic acid] as the molecule, how does the IC50 (EOL-1 AML cell line; [3]) read?
**A.** 0.001 µM

**Q.** What about the IC50 (GDM-1 AML cell line; [4]) of the same molecule?
**A.** 0.008 µM

**Q.** And the IC50 (HL-60 AML cell line; [5])?
**A.** 0.025 µM

**Q.** What about the IC50 (KG1 AML cell line; [6]) of the same molecule?
**A.** 0.39 µM

**Q.** And the IC50 (KG1a AML cell line; [7])?
**A.** 2 µM

**Q.** What about the IC50 (Kasumi-1 AML cell line; [8]) of the same molecule?
**A.** 0.033 µM

**Q.** What about the IC50 (ML-2 AML cell line; [9]) of the same molecule?
**A.** 0.005 µM

**Q.** And the IC50 (MOLM-13 AML cell line; [10])?
**A.** 0.002 µM

**Q.** What about the IC50 (MV4; 11 AML cell line; [11]) of the same molecule?
**A.** 0.001 µM

**Q.** And the IC50 (Nomo-1 AML cell line; [12])?
**A.** 0.013 µM

**Q.** What about the IC50 (OCI-AML3 AML cell line; [13]) of the same molecule?
**A.** 0.146 µM

**Q.** And the IC50 (PL-21 AML cell line; [14])?
**A.** 0.065 µM

**Q.** And the IC50 (THP-1 AML cell line; [15])?
**A.** 0.017 µM

**Q.** For Cc1c(-c2c(-c3ccc(F)o3)sc3ncnc(O[C@H](Cc4ccccc4OCc4ccnn4CC(F)(F)F)C(=O)O)c23)ccc(OCCN2CCN(C)CC2)c1Cl [Compound 2, (2R)-2-{[(5Sa)-5-{3-chloro-2-methyl-4-[2-(4-methylpiperazin-1-yl)ethoxy]phenyl}-6-(5-fluorofuran-2-yl)thieno[2,3-d]pyrimidin-4-yl]oxy}-3-(2-{[1-(2,2,2-trifluoroethyl)-1H-pyrazol-5-yl]methoxy}phenyl)propanoic acid], which IC50 (EOL-1 AML cell line; [3]) is on record?
**A.** 0.002 µM

**Q.** What about the IC50 (GDM-1 AML cell line; [4]) of the same molecule?
**A.** 0.027 µM

**Q.** What about the IC50 (HL-60 AML cell line; [5]) of the same molecule?
**A.** 0.086 µM

**Q.** And the IC50 (KG1 AML cell line; [6])?
**A.** 0.413 µM

**Q.** What about the IC50 (KG1a AML cell line; [7]) of the same molecule?
**A.** 2.2 µM

**Q.** And the IC50 (Kasumi-1 AML cell line; [8])?
**A.** 0.066 µM

**Q.** And the IC50 (ML-2 AML cell line; [9])?
**A.** 0.022 µM

**Q.** What about the IC50 (MOLM-13 AML cell line; [10]) of the same molecule?
**A.** 0.004 µM

**Q.** What about the IC50 (MV4; 11 AML cell line; [11]) of the same molecule?
**A.** 0.001 µM

**Q.** And the IC50 (Nomo-1 AML cell line; [12])?
**A.** 0.022 µM

**Q.** And the IC50 (OCI-AML3 AML cell line; [13])?
**A.** 0.34 µM

**Q.** And the IC50 (PL-21 AML cell line; [14])?
**A.** 0.238 µM

**Q.** And the IC50 (THP-1 AML cell line; [15])?
**A.** 0.051 µM

**Q.** And the CC50 ([1]; Patient AML 6200840, 48 hours)?
**A.** 0.227 µM

**Q.** What about the CC50 ([1]; Patient AML AH0131936, 48 hours) of the same molecule?
**A.** 10.7 µM

**Q.** And the CC50 ([1]; Patient AML AH0465385, 48 hours)?
**A.** 23 µM

**Q.** And the CC50 ([1]; Patient AML AH0607688, 48 hours)?
**A.** 22.9 µM

**Q.** And the CC50 ([1]; Patient AML AH0979006, 48 hours)?
**A.** 0.0618 µM

**Q.** What about the CC50 ([1]; Patient AML AH1081582, 48 hours) of the same molecule?
**A.** 4.36 µM

**Q.** And the CC50 ([1]; Patient AML AH1228742, 48 hours)?
**A.** 5360 µM

**Q.** And the CC50 ([1]; Patient AML AH6120264, 48 hours)?
**A.** 0.679 µM

**Q.** What about the CC50 ([1]; Patient AML AH6181414_2, 48 hours) of the same molecule?
**A.** 15.5 µM

**Q.** What about the CC50 ([1]; Patient AML AH6202849, 48 hours) of the same molecule?
**A.** 13 µM

**Q.** And the CC50 ([1]; Patient AML AH6208160, 48 hours)?
**A.** 21.6 µM

**Q.** And the CC50 ([1]; Patient AML AH6208654, 48 hours)?
**A.** 9.42 µM

**Q.** What about the CC50 ([1]; Patient AML AH6210946, 48 hours) of the same molecule?
**A.** 0.0556 µM

**Q.** And the CC50 ([1]; Patient AML AH6214498, 48 hours)?
**A.** 0.000868 µM

**Q.** What about the CC50 ([1]; Patient AML AH6217528, 48 hours) of the same molecule?
**A.** 1.16 µM

**Q.** What about the CC50 ([1]; Patient AML AH6219953, 48 hours) of the same molecule?
**A.** 38.8 µM

**Q.** What about the CC50 ([1]; Patient AML AH6220847, 48 hours) of the same molecule?
**A.** 0.21 µM

**Q.** And the CC50 ([1]; Patient AML AH6223646, 48 hours)?
**A.** 0.148 µM

**Q.** And the CC50 ([1]; Patient AML AH6224104, 48 hours)?
**A.** 608 µM

**Q.** And the CC50 ([1]; Patient AML AH6229985, 48 hours)?
**A.** 0.00483 µM

**Q.** And the CC50 ([1]; Patient AML AH6607085, 48 hours)?
**A.** 0.143 µM

**Q.** What about the CC50 ([1]; Patient AML AH6615742, 48 hours) of the same molecule?
**A.** 14.5 µM

**Q.** And the CC50 ([1]; Patient AML AH6627892, 48 hours)?
**A.** 14.2 µM

**Q.** And the clonogenic growth (primary AML samples)?
**A.** resistant

**Q.** What about the clonogenic growth [2] of the same molecule?
**A.** resistant

**Q.** Which results are given for Nc1ncn([C@H]2C[C@H](O)[C@@H](CO)O2)c(=O)n1 [Decitabine, decitabine]?
**A.** IC50 (EOL-1 AML cell line; Homo sapiens, EOL1, 72 h): 0.49 µM; IC50 (GDM-1 AML cell line; Homo sapiens, GDM-1, 72 h): 41 µM; IC50 (HL-60 AML cell line; Homo sapiens, HL-60, 72 h): 14 µM; IC50 (KG1 AML cell line; 72 h): 5.8 µM; IC50 (KG1a AML cell line; Homo sapiens, KG-1a, 72 h): 14 µM; IC50 (Kasumi-1 AML cell line; Homo sapiens, Kasumi 1, 72 h): 5.5 µM; IC50 (ML-2 AML cell line; 72 h): 14 µM; IC50 (MOLM-13 AML cell line; Homo sapiens, MOLM-13, 72 h): 0.4 µM; IC50 (MV4; 11 AML cell line; Homo sapiens, MV4-11, 72 h): 0.4 µM; IC50 (Nomo-1 AML cell line; Homo sapiens, NOMO-1, 72 h): > 5 µM; IC50 (OCI-AML3 AML cell line; Homo sapiens, OCI-AML-3, 72 h): 8 µM; IC50 (PL-21 AML cell line; PL-21, 72 h): > 5 µM; IC50 (THP-1 AML cell line; Homo sapiens, THP-1, 72 h): > 30 µM
